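Growth conditions: 96-well plates. Treatment: test compound, 48 hours, 5 concentrations. Analysis: linear interpolation between bracketing concentrations; unreached endpoints set to highest concentration. GI50: concentration for 50% inhibition of growth. TGI is the concentration that stops growth completely.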
What was measured:
Test in all cases: NCI anticancer screen, dose series, 48 h
[1] = test system: 786-0 renal
[2] = test system: A498 renal
[3] = test system: A549 NSCLC
[4] = test system: ACHN renal
[5] = test system: BT-549 breast
[6] = test system: CAKI-1 renal
[7] = test system: CCRF-CEM leukemia
[8] = test system: COLO 205 colon
[9] = test system: DU-145 prostate
[10] = test system: EKVX NSCLC
[11] = test system: HCC-2998 colon
[12] = test system: HCT-116 colon
[13] = test system: HCT-15 colon
[14] = test system: HL-60(TB) leukemia
[15] = test system: HOP-62 NSCLC
[16] = test system: HOP-92 NSCLC
[17] = test system: HS 578T breast
[18] = test system: HT29 colon
[19] = test system: IGROV1 ovarian
[20] = test system: K-562 leukemia
[21] = test system: KM12 colon
[22] = test system: LOX IMVI melanoma
[23] = test system: M14 melanoma
[24] = test system: MALME-3M melanoma
[25] = test system: MCF7 breast
[26] = test system: MDA-MB-231 breast
[27] = test system: MDA-MB-435
[28] = test system: MOLT-4 leukemia
[29] = test system: NCI-H226 lung
[30] = test system: NCI-H23 lung
[31] = test system: NCI-H460 lung
[32] = test system: NCI-H522 lung
[33] = test system: NCI/ADR-RES ovarian
[34] = test system: OVCAR-3 ovarian
[35] = test system: OVCAR-4 ovarian
[36] = test system: OVCAR-5 ovarian
[37] = test system: OVCAR-8 ovarian
[38] = test system: PC-3 prostate
[39] = test system: RPMI-8226 leukemia
[40] = test system: RXF 393 renal
[41] = test system: SF-268 CNS
[42] = test system: SF-295 CNS
[43] = test system: SF-539 CNS
[44] = test system: SK-MEL-2 melanoma
[45] = test system: SK-MEL-28 melanoma
[46] = test system: SK-MEL-5 melanoma
[47] = test system: SK-OV-3 ovarian
[48] = test system: SN12C renal
[49] = test system: SNB-19 CNS
[50] = test system: SNB-75 CNS
[51] = test system: SR leukemia
[52] = test system: SW-620 colon
[53] = test system: T-47D breast
[54] = test system: TK-10 renal
[55] = test system: U251 CNS
[56] = test system: UACC-257 melanoma
[57] = test system: UACC-62 melanoma
[58] = test system: UO-31 renal

Structure (SMILES): OC(c1cc(C(F)(F)F)nc2c(C(F)(F)F)cccc12)C1CCCCN1 (stereo not given)
- GI50 [1]: 1.88 µM
- TGI [1]: 3.77 µM
- GI50 [2]: 1.81 µM
- TGI [2]: 7.83 µM
- GI50 [3]: 2.24 µM
- TGI [3]: 6.33 µM
- GI50 [4]: 2.69 µM
- TGI [4]: 7.05 µM
- GI50 [5]: 3.24 µM
- TGI [5]: 8.67 µM
- GI50 [6]: 1.78 µM
- TGI [6]: 4.67 µM
- GI50 [7]: 3.04 µM
- TGI [7]: 9.13 µM
- GI50 [8]: 1.83 µM
- TGI [8]: 3.3 µM
- GI50 [9]: 2.76 µM
- TGI [9]: 6.16 µM
- GI50 [10]: 2.3 µM
- TGI [10]: 8.63 µM
- GI50 [11]: 1.46 µM
- TGI [11]: 3.22 µM
- GI50 [12]: 1.79 µM
- TGI [12]: 3.22 µM
- GI50 [13]: 3.51 µM
- TGI [13]: 10.9 µM
- GI50 [14]: 2.46 µM
- TGI [14]: 4.6 µM
- GI50 [15]: 1.84 µM
- TGI [15]: 5.13 µM
- GI50 [16]: 1.01 µM
- TGI [16]: 3.69 µM
- GI50 [17]: 3.8 µM
- TGI [17]: 19.5 µM
- GI50 [18]: 1.99 µM
- TGI [18]: 3.92 µM
- GI50 [19]: 2.21 µM
- TGI [19]: 5.58 µM
- GI50 [20]: 3.12 µM
- TGI [20]: 6.47 µM
- GI50 [21]: 1.87 µM
- TGI [21]: 3.59 µM
- GI50 [22]: 1.65 µM
- TGI [22]: 3.15 µM
- GI50 [23]: 1.83 µM
- TGI [23]: 3.41 µM
- GI50 [24]: 2.6 µM
- TGI [24]: 7.36 µM
- GI50 [25]: 1.85 µM
- TGI [25]: 3.49 µM
- GI50 [26]: 1.78 µM
- TGI [26]: 3.45 µM
- GI50 [27]: 1.8 µM
- TGI [27]: 3.66 µM
- GI50 [28]: 2.77 µM
- TGI [28]: 6.53 µM
- GI50 [29]: 1.8 µM
- TGI [29]: 3.7 µM
- GI50 [30]: 2.85 µM
- TGI [30]: 11.3 µM
- GI50 [31]: 2.07 µM
- TGI [31]: 4.14 µM
- GI50 [32]: 1.65 µM
- TGI [32]: 3.2 µM
- GI50 [33]: 2.31 µM
- TGI [33]: 5.95 µM
- GI50 [34]: 2.19 µM
- TGI [34]: 4.37 µM
- GI50 [35]: 2.81 µM
- TGI [35]: 7.07 µM
- GI50 [36]: 2.88 µM
- TGI [36]: 10.4 µM
- GI50 [37]: 1.97 µM
- TGI [37]: 4.24 µM
- GI50 [38]: 2.17 µM
- TGI [38]: 5.88 µM
- GI50 [39]: 3.22 µM
- TGI [39]: 11.5 µM
- GI50 [40]: 1.71 µM
- TGI [40]: 4.53 µM
- GI50 [41]: 3.57 µM
- TGI [41]: 13.1 µM
- GI50 [42]: 2.04 µM
- TGI [42]: 5.09 µM
- GI50 [43]: 2.72 µM
- TGI [43]: 6.34 µM
- GI50 [44]: 2.31 µM
- TGI [44]: 4.16 µM
- GI50 [45]: 1.84 µM
- TGI [45]: 3.29 µM
- GI50 [46]: 1.68 µM
- TGI [46]: 3.07 µM
- GI50 [47]: 1.95 µM
- TGI [47]: 4.32 µM
- GI50 [48]: 1.78 µM
- TGI [48]: 3.71 µM
- GI50 [49]: 2.75 µM
- TGI [49]: 8.22 µM
- GI50 [50]: 2.34 µM
- TGI [50]: 11.7 µM
- GI50 [51]: 3.59 µM
- TGI [51]: 8.27 µM
- GI50 [52]: 1.85 µM
- TGI [52]: 3.46 µM
- GI50 [53]: 1.76 µM
- TGI [53]: 4.11 µM
- GI50 [54]: 1.8 µM
- TGI [54]: 3.43 µM
- GI50 [55]: 1.79 µM
- TGI [55]: 4.25 µM
- GI50 [56]: 2.2 µM
- TGI [56]: 6.53 µM
- GI50 [57]: 1.89 µM
- TGI [57]: 4.47 µM
- GI50 [58]: 2.63 µM
- TGI [58]: 12.3 µM

Structure (SMILES): CCCCCCCCCCSC(=N)N (tested in a mixture with another compound)
- GI50 [1]: 1.91 µM
- TGI [1]: 4.54 µM
- GI50 [2]: 6.55 µM
- TGI [2]: 19.7 µM
- GI50 [3]: 4.36 µM
- TGI [3]: 18 µM
- GI50 [4]: 2.86 µM
- TGI [4]: 10.1 µM
- GI50 [5]: 6.65 µM
- TGI [5]: 25.9 µM
- GI50 [6]: 2.03 µM
- TGI [6]: 5.04 µM
- GI50 [7]: 3.65 µM
- TGI [7]: 17 µM
- GI50 [8]: 1.86 µM
- TGI [8]: 3.78 µM
- GI50 [9]: 4.47 µM
- TGI [9]: 16.1 µM
- GI50 [10]: 6.89 µM
- TGI [10]: 23.7 µM
- GI50 [11]: 1.6 µM
- TGI [11]: 3.05 µM
- GI50 [12]: 2.6 µM
- TGI [12]: 9.55 µM
- GI50 [13]: 2.12 µM
- TGI [13]: 5.06 µM
- GI50 [14]: 1.85 µM
- TGI [14]: 4.19 µM
- GI50 [15]: 11.8 µM
- TGI [15]: 27.3 µM
- GI50 [16]: 2.66 µM
- TGI [16]: 8.83 µM
- GI50 [17]: 8.03 µM
- TGI [17]: 29.5 µM
- GI50 [18]: 1.78 µM
- TGI [18]: 4.34 µM
- GI50 [19]: 5.2 µM
- TGI [19]: 18.9 µM
- GI50 [20]: 1.72 µM
- TGI [20]: 5.88 µM
- GI50 [21]: 1.97 µM
- TGI [21]: 4.12 µM
- GI50 [22]: 2.72 µM
- TGI [22]: 11.1 µM
- GI50 [23]: 1.87 µM
- TGI [23]: 3.85 µM
- GI50 [24]: 2.24 µM
- TGI [24]: 5.07 µM
- GI50 [25]: 2.75 µM
- TGI [25]: 10.4 µM
- GI50 [26]: 1.8 µM
- TGI [26]: 4.22 µM
- GI50 [27]: 1.7 µM
- TGI [27]: 3.27 µM
- GI50 [28]: 1.85 µM
- TGI [28]: 5.51 µM
- GI50 [29]: 18.3 µM
- TGI [29]: 40.1 µM
- GI50 [30]: 11.1 µM
- TGI [30]: 25.9 µM
- GI50 [31]: 2.64 µM
- TGI [31]: 6.28 µM
- GI50 [32]: 1.91 µM
- TGI [32]: 4.68 µM
- GI50 [33]: 6.29 µM
- TGI [33]: 25.6 µM
- GI50 [34]: 2.36 µM
- TGI [34]: 6.28 µM
- GI50 [35]: 3.44 µM
- TGI [35]: 16 µM
- GI50 [36]: 13.1 µM
- TGI [36]: 32.7 µM
- GI50 [37]: 3.05 µM
- TGI [37]: 9.64 µM
- GI50 [38]: 5.01 µM
- TGI [38]: 20.1 µM
- GI50 [39]: 2.53 µM
- TGI [39]: 6.31 µM
- GI50 [40]: 2.55 µM
- TGI [40]: 7.23 µM
- GI50 [41]: 4.01 µM
- TGI [41]: 17.6 µM
- GI50 [42]: 3.79 µM
- TGI [42]: 14.3 µM
- GI50 [43]: 10.9 µM
- TGI [43]: 23.8 µM
- GI50 [45]: 2.65 µM
- TGI [45]: 8.15 µM
- GI50 [46]: 2.83 µM
- TGI [46]: 8.55 µM
- GI50 [47]: 11.8 µM
- TGI [47]: 24.8 µM
- GI50 [48]: 6.28 µM
- TGI [48]: 21.6 µM
- GI50 [49]: 4.28 µM
- TGI [49]: 18.2 µM
- GI50 [50]: 1.42 µM
- TGI [50]: 3.43 µM
- GI50 [51]: 2.34 µM
- TGI [51]: 6.9 µM
- GI50 [52]: 2.1 µM
- TGI [52]: 4.7 µM
- GI50 [53]: 1.86 µM
- TGI [53]: 4.95 µM
- GI50 [54]: 1.95 µM
- TGI [54]: 4.19 µM
- GI50 [55]: 1.77 µM
- TGI [55]: 3.62 µM
- GI50 [56]: 2.46 µM
- TGI [56]: 5.93 µM
- GI50 [57]: 1.95 µM
- TGI [57]: 3.96 µM
- GI50 [58]: 3.02 µM
- TGI [58]: 13 µM
